System: spinal cord dorsal horn (L4) neuronal oscillation
Assay: Spinal cord dorsal horn LFP/PSD recording after intradermal capsaicin injection (model of acute pain)
Assay type: in vivo, rat
Conditions: anesthetized rats, FIG. 1B
Protocol: FIG. 1A is a schematic showing electrode placement in the spinal cord dorsal horn (L4) for the recoding of local field potential (LFP) from anesthetized rats (n=3 rats/group).
Experiments were conducted on anesthetized Sprague Dawley rats (200-250 g). […] LFP was sampled at a high frequency (25,000 Hz) and down-sampled offline to 250 Hz.
Natural sensory stimuli (e.g. brush and pinch) and intradermal injections of capsaicin were applied to the receptive field in the hindpaw corresponding to the recording site in the spinal cord. […] PSD plots the distribution of the power amplitude of a waveform as a function of frequency. Spontaneous oscillation in the spinal cord dorsal horn was enhanced compared to baseline LFP recording in response to capsaicin injection in the ipsilateral foot within physiologically relevant frequency bands, e.g., theta and alpha, oscillated at baseline. […] Thus, oscillation was normalized with systemic administration of an analgesic compound.

Structure (SMILES)	Spontaneous oscillation in the spinal cord dorsal horn (PSD) compared to baseline LFP recording (intradermal 5% capsaicin injection in the ipsilateral foot, theta and alpha bands)	Effect on capsaicin-enhanced PSD normalized to baseline (ibuprofen 400 mg/Kg intraperitoneally, after intradermal 5% capsaicin, n=3 rats/group)
COc1cc(CNC(=O)CCCC/C=C/C(C)C)ccc1O [capsaicin]	enhanced	
CC(C)Cc1ccc(C(C)C(=O)O)cc1 (centres unmarked) [ibuprofen]		mitigation of the enhanced PSD
